The results in this text go back to patent publication US11780834B2, “Solid forms of 3-((1R,3R)-1-(2,6-difluoro-4-((1-(3-fluoropropyl)azetidin-3-yl)amino)phenyl)-3-methyl-1,3,4,9-tetrahydro-2H-pyrido[3,4-b]indol-2-yl)-2,2-difluoropropan-1-ol and processes for preparing fused tricyclic compounds comprising a substituted phenyl or pyridinyl moiety, including methods …” (Hoffmann-La Roche Inc., priority 2018, dated 2023).

Where a name gives a salt, the structure may show the parent alone.

Data set [1] is described as follows: In vitro metabolite identification. Type of data set: in vitro ADME.
In another data set the target is T1, CYP2B6 (Homo sapiens, UniProt P20813).
T1 construct: from tissue; host or cells: human liver microsomes
T1 sequence (P20813 1-491): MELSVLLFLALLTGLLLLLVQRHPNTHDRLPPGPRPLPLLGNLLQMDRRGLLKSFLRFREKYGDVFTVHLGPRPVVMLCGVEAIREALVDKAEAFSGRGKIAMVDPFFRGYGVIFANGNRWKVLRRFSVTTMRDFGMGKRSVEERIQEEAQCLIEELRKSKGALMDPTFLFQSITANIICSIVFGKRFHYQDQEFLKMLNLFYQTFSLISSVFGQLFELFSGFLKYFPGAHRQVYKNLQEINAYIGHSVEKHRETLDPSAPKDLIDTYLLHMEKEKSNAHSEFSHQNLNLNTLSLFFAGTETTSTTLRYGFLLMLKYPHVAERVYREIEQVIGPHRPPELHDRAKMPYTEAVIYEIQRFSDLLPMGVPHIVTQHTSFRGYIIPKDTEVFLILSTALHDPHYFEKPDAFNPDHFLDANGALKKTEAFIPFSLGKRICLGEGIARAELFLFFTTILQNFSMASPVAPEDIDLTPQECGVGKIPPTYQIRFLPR
Kind of data set: CYP2B6 inhibition in human liver microsomes. Type of data set: in vitro ADME.

In another data set the target is ER (Homo sapiens, UniProt P03372). Kind of data set: ER degradation and ER pathway suppression. It counts as cell-based. The settings on record: compared to GDC-0927 and GDC-0810.
Chain of ER (P03372 whole entry): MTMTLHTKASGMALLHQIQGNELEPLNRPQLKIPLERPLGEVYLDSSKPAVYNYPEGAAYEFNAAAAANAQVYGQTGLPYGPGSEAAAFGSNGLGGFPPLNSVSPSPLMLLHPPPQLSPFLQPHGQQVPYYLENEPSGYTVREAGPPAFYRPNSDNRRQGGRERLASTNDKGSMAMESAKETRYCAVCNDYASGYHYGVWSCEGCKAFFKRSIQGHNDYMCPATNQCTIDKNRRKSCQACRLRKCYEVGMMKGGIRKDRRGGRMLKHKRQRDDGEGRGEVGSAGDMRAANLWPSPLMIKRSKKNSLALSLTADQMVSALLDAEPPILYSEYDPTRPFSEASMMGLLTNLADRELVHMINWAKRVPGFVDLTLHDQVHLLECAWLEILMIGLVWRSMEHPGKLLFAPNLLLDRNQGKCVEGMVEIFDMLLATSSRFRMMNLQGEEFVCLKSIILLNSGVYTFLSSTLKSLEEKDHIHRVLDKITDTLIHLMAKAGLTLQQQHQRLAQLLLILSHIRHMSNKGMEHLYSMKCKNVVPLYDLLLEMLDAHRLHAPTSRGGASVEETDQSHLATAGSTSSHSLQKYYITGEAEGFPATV

A word on the IC50: it is the concentration at which inhibition is half-maximal. A low value points to greater potency. Consider `C[C@@H]1Cc2c([nH]c3ccccc23)[C@@H](c2c(F)cc(NC3CN(CCCF)C3)cc2F)N1CC(F)(F)CO` [Compound B, 3-((1R,3R)-1-(2,6-difluoro-4-((1-(3-fluoropropyl)azetidin-3-yl)amino)phenyl)-3-methyl-1,3,4,9-tetrahydro-2H-pyrido[3,4-b]indol-2-yl)-2,2-difluoropropan-1-ol tartrate], for which, in data set [1], the “Major in vitro metabolic pathway” value is given as “UGT1A4-mediated glucuronidation”. In addition, on CYP2B6, half-maximal inhibition (IC50) was put at 13 µM. Moreover, on ER, the “ER degradation & ER pathway suppression” value is on record as “superior”.
